# In US7846924B2, “Cyanopyrroles” (Wyeth LLC, priority 1999, dated 2010):
row,melting point,Structure (SMILES)
1,128 to 131 °C,"CCCCCn1c(C#N)ccc1-c1ccc2c(c1)C(C)(C)OC(=O)N2 [Example 11, 5-(4,4-Dimethyl-2-oxo-1,4-dihydro-2H-3,1-benzoxazine-6-yl)-1-pentyl-1H-pyrrole-2-carbonitrile]"
2,256 to 257 °C (dec.),"CN1C(=O)OC(C)(C)c2cc(-c3ccc(C#N)[nH]3)ccc21 [Example 12, 5-(1,4,4-trimethyl-2-oxo-1,4-dihydro-2H-3,1-benzoxazin-6-yl)-1H-pyrrole-2-carbonitril]"
3,207 to 209 °C,"CC1(C)OC(=O)Nc2ccc(-c3ccc(C#N)n3CC(=O)O)cc21 [Example 9, [2-Cyano-5-(4,4-dimethyl-2-oxo-1,4-dihydro-2H-3,1-benzoxazin-6-yl)-1H-pyrrol-1yl]acetic acid]"
4,160 to 162 °C,"CCOc1cc(CCNC(=O)Cn2c(C#N)ccc2-c2ccc3c(c2)C(C)(C)OC(=O)N3)ccc1OC [Example 10, 2-[2-cyano-5-(4,4-dimethyl-2-oxo-1,4-dihydro-2H-3,1-benzoxazin-6-yl)-1H-pyrrol-1-yl]-N-[2-(3-ethoxy-4-methoxyphenyl)ethyl]acetamide]"

# Second part, the compound before the results:
row,Structure (SMILES),melting point
1,"CCn1c(C#N)ccc1-c1ccc2c(c1)C(C)(C)OC(=O)N2 [Example 6, 5-(4,4-Dimethyl-2-oxo-1,4-dihydro-2H-3,1-benzoxazin-6-yl)-1-ethyl-1H-pyrrole-2-carbonitrile]",200 to 202 °C
2,"C#CCn1c(C#N)ccc1-c1ccc2c(c1)C(C)(C)OC(=O)N2 [Example 7, 5-(4,4-dimethyl-2-oxo-1,4-Dihydro-2H-3,1-benzoxazin-6-yl)-1-prop-2-ynyl-1H-pyrrole-2-carbonitrile]",222 to 224 °C
3,"CC1(C)OC(=O)Nc2ccc(-c3ccc(C#N)[nH]3)cc21 [Example 1, 5-(4,4-Dimethyl-2-oxo-1,4-dihydro-2H-benzo[d][1,3]oxazin-6-yl)-1H-pyrrole-2-carbonitrile]",241 to 242 °C
4,"CC(C)(C)OC(=O)Cn1c(C#N)ccc1-c1ccc2c(c1)C(C)(C)OC(=O)N2 [Example 8, tert-butyl[2-cyano-5-(4,4-dimethyl-2-oxo-1,4-dihydro-2H-3,1-benzoxazin-6-yl)-1H-pyrrol-1-yl]acetate]",188 to 190 °C
5,"CC1(C)C(=O)Nc2ccc(C3(C#N)C=CC=N3)cc21 (stereo not drawn) [Example 3, 2-(3,3-Dimethyl-2-oxo-2,3-dihydro-1H-indol-5-yl)-2-cyanopyrrole]",255.9 to 257.9 °C
